What is called TGI is the concentration at which net growth stops. Higher therefore signals lower sensitivity of the cells. Usually GI50 stands for the concentration that inhibits growth by half.

Some test systems named below: A549 NSCLC; ACHN renal; HCT-15 colon; IGROV1 ovarian; OVCAR-5 ovarian; RXF 393 renal; SF-539 CNS; UACC-257 melanoma; MDA-MB-435.
Common to all, as to assay: DTP human tumour cell line panel, 48 h

SMILES strings stand for the structures.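 Each compound was tested at five concentrations against cells in 96-well plates for 48 hours. GI50: concentration for 50% inhibition of growth. TGI: concentration producing complete growth inhibition.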 Where only a bound is given, the exact number is not on record here.

On to `O=C1CCC(=O)N2CCCCN12`, for which the TGI with A549 NSCLC, in the assay on ACHN renal, in the assay on HCT-15 colon, in the assay on IGROV1 ovarian, with OVCAR-5 ovarian and in the assay with RXF 393 renal was over 100 µM each time. Besides, the TGI in the assay with SF-539 CNS and in the assay with UACC-257 melanoma was over 100 µM each time.
For the compound `O=C(O)CNS(=O)(=O)c1ccc(NCc2ccccc2)cc1`, the TGI in the assay on A549 NSCLC, with ACHN renal, in the assay on HCT-15 colon, in the assay on IGROV1 ovarian, with OVCAR-5 ovarian and in the assay with RXF 393 renal was over 100 µM each time. Also, the TGI in the assay with SF-539 CNS and in the assay with UACC-257 melanoma was over 100 µM in each case.
`COc1ccc(/C=C/CN(C)CCc2ccccc2)cc1OC`: the TGI with A549 NSCLC, with ACHN renal, in the assay with HCT-15 colon, in the assay on IGROV1 ovarian, with OVCAR-5 ovarian and with RXF 393 renal was over 100 µM each time. This compound also displayed a TGI in the assay on UACC-257 melanoma of over 100 µM.
With `COC(=O)C1Cc2c(n(Cc3ccccc3)c3ccccc23)C(CCC(=O)O)N1C(C)C` (stereo unspecified), the TGI in the assay with A549 NSCLC, in the assay on ACHN renal, with HCT-15 colon, in the assay with IGROV1 ovarian, with OVCAR-5 ovarian and in the assay on SF-539 CNS was over 100 µM in each case. In the assay with UACC-257 melanoma, this compound returned a TGI of over 100 µM.
Turning to `C/C(CC(=O)Nc1cc(Cl)c(Cl)cc1Cl)=N\NC(N)=O`, the TGI with A549 NSCLC, in the assay on IGROV1 ovarian, in the assay with OVCAR-5 ovarian, in the assay with RXF 393 renal, in the assay with SF-539 CNS and in the assay with UACC-257 melanoma was over 100 µM each time.
On to `CCC[CH2][Sn]1([CH2]CCC)[O]Cc2nc(C)ccc2[O]1`, for which the GI50 in the assay with A549 NSCLC is 19 µM; in the assay with ACHN renal, 12 µM; in the assay on HCT-15 colon, 10.1 µM; with IGROV1 ovarian, 14.9 µM; in the assay with OVCAR-5 ovarian, 12.3 µM; in the assay with RXF 393 renal, 8.15 µM. The values for the GI50 in the assay on SF-539 CNS and in the assay with UACC-257 melanoma were 12.1 µM and 5.6 µM, respectively. For the same compound, the TGI was found to be 33.1 µM with A549 NSCLC; 24.4 µM in the assay with ACHN renal; 21.9 µM in the assay on HCT-15 colon; 28.8 µM with IGROV1 ovarian; 24.8 µM in the assay on OVCAR-5 ovarian; 19.9 µM in the assay on RXF 393 renal. Further, the TGI was 24.5 µM in the assay on SF-539 CNS and 20.2 µM in the assay on UACC-257 melanoma.
Regarding `COc1ccc(/C(COc2c(-c3ccccc3)oc3ccccc3c2=O)=N\O)cc1`, the GI50 in the assay on A549 NSCLC is 23.2 µM; in the assay on ACHN renal it was 10.6 µM; with HCT-15 colon it was 19.5 µM; in the assay with IGROV1 ovarian, 22.9 µM; in the assay on RXF 393 renal it was 31.9 µM; with SF-539 CNS, 13.5 µM. Further, in the assay with UACC-257 melanoma, the GI50 was 17.8 µM. Besides, the TGI is over 50 µM with A549 NSCLC; 26.3 µM in the assay on ACHN renal; over 50 µM with HCT-15 colon; over 50 µM with IGROV1 ovarian; over 50 µM in the assay with RXF 393 renal; 27.9 µM in the assay on SF-539 CNS. For the same compound, the TGI with UACC-257 melanoma is over 50 µM.
On to `O=C(/N=N/C(=O)OCc1ccccc1)OCc1ccccc1`, for which the TGI in the assay with A549 NSCLC, in the assay with ACHN renal, with HCT-15 colon, in the assay on IGROV1 ovarian, in the assay with OVCAR-5 ovarian and with RXF 393 renal was over 100 µM throughout. For the same compound, the TGI with SF-539 CNS and in the assay on UACC-257 melanoma was over 100 µM in each case.
On to `CC(=O)OCCN1c2ccccc2Sc2cnccc21`, for which the concentration for total growth inhibition (TGI) in the assay on A549 NSCLC, in the assay with ACHN renal, in the assay on HCT-15 colon, in the assay with IGROV1 ovarian, with MDA-MB-435 and in the assay with OVCAR-5 ovarian was over 10 µM in each case. The TGI with RXF 393 renal, in the assay with SF-539 CNS and in the assay on UACC-257 melanoma was over 10 µM throughout.
Regarding `CC(C)(C)C1C=C(Sc2ccccc2)C(=O)O1` (stereo unspecified), the TGI in the assay on A549 NSCLC, with ACHN renal, with HCT-15 colon, in the assay with IGROV1 ovarian, in the assay with OVCAR-5 ovarian and in the assay with SF-539 CNS was over 100 µM each time. Further, the TGI in the assay with UACC-257 melanoma was over 100 µM.
As to `Cc1cccc(C)c1NC(=O)C(=O)C1C(=O)NC(=O)NC1=O`, the TGI in the assay with A549 NSCLC, in the assay on ACHN renal, in the assay with HCT-15 colon, with IGROV1 ovarian, in the assay with OVCAR-5 ovarian and in the assay on RXF 393 renal was over 100 µM each time. For the same compound, the TGI in the assay on SF-539 CNS and in the assay with UACC-257 melanoma was over 100 µM each time.
With `COC(=O)/C(=N/NC(=O)C[N+](C)(C)C)C(C(=O)OC)C(=O)C(=O)Nc1ccc(F)cc1` (stereo unspecified), the TGI in the assay with A549 NSCLC, with ACHN renal, in the assay with HCT-15 colon, with IGROV1 ovarian, in the assay on OVCAR-5 ovarian and with RXF 393 renal was over 100 µM in each case. The TGI in the assay on SF-539 CNS and in the assay on UACC-257 melanoma was over 100 µM throughout.
On to `O=C1O[C@@H](c2ccc3c(c2)OCO3)C2C(=O)O[C@@H](c3ccc4c(c3)OCO4)C12` (stereo partly specified), for which the TGI in the assay on A549 NSCLC, in the assay with ACHN renal, with HCT-15 colon, with IGROV1 ovarian, with RXF 393 renal and in the assay with SF-539 CNS was over 100 µM each time. In the assay on UACC-257 melanoma, the TGI is over 100 µM.
As for `CC(C)c1nc(CN(C)C(=O)N[C@H](C(=O)N[C@@H](Cc2ccccc2)C[C@H](O)[C@H](Cc2ccccc2)NC(=O)OCc2cncs2)C(C)C)cs1`, the GI50 in the assay on A549 NSCLC was 23 µM; in the assay with ACHN renal it was 29.1 µM; in the assay on HCT-15 colon, 24.5 µM; in the assay on IGROV1 ovarian, 36.4 µM; with MDA-MB-435 it was 20.1 µM; with OVCAR-5 ovarian, 28.2 µM. For the same compound, the results for the GI50 in the assay on RXF 393 renal, in the assay with SF-539 CNS and with UACC-257 melanoma were 17.7 µM, 2.33 µM and 18.4 µM, respectively. Moreover, the TGI is 65.5 µM in the assay on A549 NSCLC; 82.3 µM in the assay on ACHN renal; over 100 µM in the assay with HCT-15 colon; over 100 µM in the assay with IGROV1 ovarian; 57.4 µM in the assay with MDA-MB-435; 71.5 µM with OVCAR-5 ovarian. The TGI was determined as 35.8 µM in the assay with RXF 393 renal, 49.4 µM with SF-539 CNS and 38 µM in the assay with UACC-257 melanoma.

For the origin of these results see PubChem BioAssay (NCI).
